Laboratory results reported in patent US20150141523A1, “COMPOUNDS FOR USE IN THE TREATMENT OF AUTOIMMUNE INFLAMMATORY DISEASE” (Venantius Limited, priority 2012, published 2015).

Legend:
[1] = test system: IL-2 secretion from Jurkat T cells; test: IL-2 secretion from activated Jurkat T cells (ELISA); type: cell-based, human; conditions: for IL-2 [ ]pg/ml (1) / IL-2 % Control (1): experiment (1); for IL-2 % Control (1) / IL-2 % Control (2) / IL-2 % Control (3): relative to DMSO 0.1%; for IL-2 [ ]pg/ml (2) / IL-2 % Control (2): experiment (2); for IL-2 [ ]pg/ml (3) / IL-2 % Control (3): experiment (3)
Description: The T cell line Jurkat 6.1 (ATCC) was used. Cells were pre-treated for 30 min with 1 μM or 10 μM of the respective compound and then stimulated with plate-bound anti-CD3 (BD Pharmingen) and anti-CD28 (AnCell). DMSO was used as vehicle control. The immunosuppressive agent Cyclosporine A was used as a control for inhibition of IL-2 production. After 24 hs the supernatant was collected and IL-2 secretion was measured by ELISA.
Jurkat T cells were cultured in RMPI-1640 medium containing 10 % Foetal Bovine Serum, Penicillin/Streptomycin and L-Glutamine in T-75cm2 flasks at 37° C. and 5 % CO2. Cells were seeded into new culture flasks at a density of 1-3×10^5 cells per ml and maintained at a density of 0.5−1×10^6 cells per ml.
(§1) (A) Anti-TCR/CD28-mediated activation of Jurkat cells: Experiments involving anti-TCR/CD28-mediated activation of Jurkat T lymphocytes were carried out on 24-well cell culture plates. The plates were coated with a 1/100 dilution of rabbit anti-mouse IgG in sterile PBS (1×) and incubated overnight at 4OC. Unbound antibody was aspirated and the wells were gently rinsed with warm sterile PBS. The PBS was aspirated and the wells were coated with a 1/100 dilution of anti-TCR antibody (OKT-3) and a 1/200 dilution of anti-CD28 antibody (both antibodies pre-mixed prior to addition to the plates) in sterile PBS. The plates were then incubated for 1-2 hours at 37° C. Unbound antibody was aspirated and the wells were gently rinsed with warm PBS. The PBS was left on the plate until the Jurkat cells were ready to be added to the plate. The Jurkat cells were harvested from the T-75cm2 cell culture flasks and resuspended at a density of 0.5×10^6 cells per ml. The compounds were dissolved at a specified stock concentration (see results section) and diluted to the required concentration by adding the drug to the cell suspension. The cells were then pre-incubated with the compounds or with an equivalent volume of drug vehicle control (DMSO) for 30 minutes prior to adding the cell suspension to the antibody-coated plates. Cyclosporine A (1 μM) was used as a positive control to inhibit IL-2 production from activated T cells and was preincubated with the 6 cells as described above in parallel. The cells were then incubated on the plates with the acti-TCR/CD28 antibodies for 24 hours at 37° C. and 5% CO2 in a humidified atmosphere. After 24 hours, the cell suspension was removed from the plates and the cells were pelleted by centrifugation. The cell culture supernatant was saved and analysed for secreted IL-2 by ELISA. The cell pellet was saved and cell viability was measured using Acridine Orange/Ethidium Bromide cell viability staining solution.
(B) PHA/PMA-mediated activation of Jurkat cells Jurkat cells were resuspended at a concentration of 0.5×10^6 cells per ml and the Pharmatrin compounds at the desired concentration or an equivalent volume of drug vehicle control (DMSO) were added to the cells and incubated for 30 minutes. Cyclosporine A (1 ∝M) was used as a positive control to inhibit IL-2 production from activated T cells and was preincubated with the cells as described above in parallel. PHA and PMA were added to the cell suspension (10 ∝g/ml and 10 ng/ml respectively) and the cells were plated onto uncoated 24-well plates. The cells were incubated on the plates for 24 hours at 37° C. and 5 % CO2 in a humidified atmosphere. After 24 hours, the cell suspension was removed from the plates and the cells were pelleted by centrifugation. The cell culture supernatant was saved and analysed for secreted IL-2 by ELISA.
The cell culture supernatants were analysed for IL-2 by ELISA (96-well plate format) using the Human IL-2 ELISA kit from R&D Systems Europe. This assay was carried out using the standard protocol outlined by the company. Samples and standards (recombinant human IL-2 provided by R&D Systems) were analysed in triplicate. […]

[2] = test system: Jurkat cells; test: Jurkat cell viability (Acridine Orange/Ethidium Bromide); type: cell-based
Description: as §1
The cell pellet was resuspended in 20 μl of Acridine Orange/Ethidium Bromide staining solution. A portion of this cell suspension was placed on a haemocytometer and analysed under a fluorescence microscope. […] The ratio of viable cells: non-viable cells were calculated for each activation time point/drug treatment.

[3] = test system: Balb/C mice; test: 5% DSS-induced murine colitis model; type: in vivo, mouse; conditions: for inhibition of DAI in DSS-induced colitis: 5% DSS colitis (FIG. 9); for effect on DSS-induced weight loss: 5% DSS colitis, 30 mg/kg p.o. (FIG. 8)

Molecule	IL-2 [ ]pg/ml (1) ([1]; 0.3 uM) [pg/mL]	IL-2 % Control (1) ([1]; 0.3 uM) [%]	IL-2 [ ]pg/ml (2) ([1]; 0.3 uM) [pg/mL]	IL-2 % Control (2) ([1]; 0.3 uM) [%]	IL-2 [ ]pg/ml (3) ([1]; 0.3 uM) [pg/mL]	IL-2 % Control (3) ([1]; 0.3 uM) [%]	IL-2 [ ]pg/ml (1) ([1]; 1 uM) [pg/mL]	IL-2 % Control (1) ([1]; 1 uM) [%]	IL-2 [ ]pg/ml (2) ([1]; 1 uM) [pg/mL]	IL-2 % Control (2) ([1]; 1 uM) [%]	IL-2 [ ]pg/ml (3) ([1]; 1 uM) [pg/mL]	IL-2 % Control (3) ([1]; 1 uM) [%]	IL-2 [ ]pg/ml (1) ([1]; 3 uM) [pg/mL]	IL-2 % Control (1) ([1]; 3 uM) [%]	IL-2 [ ]pg/ml (2) ([1]; 3 uM) [pg/mL]	IL-2 % Control (2) ([1]; 3 uM) [%]	IL-2 [ ]pg/ml (3) ([1]; 3 uM) [pg/mL]	IL-2 % Control (3) ([1]; 3 uM) [%]	IL-2 [ ]pg/ml (1) ([1]; 10 uM) [pg/mL]	IL-2 % Control (1) ([1]; 10 uM) [%]	other results
(R,S or SR)2-Benzyl-2,3-dihydro-1H,1′H-2,2′-biinden-1-ol [Compound 8]	44.20	216.67	50.10	245.59	107.03	77.39	37.95	186.03	39.65	194.36	111.75	80.81	34.45	168.87	36.00	176.47	102.92	74.42	20.15	98.77	IL2 release from Jurkat cells [1]: inhibited IL2 release; IL-2 [ ]pg/ml (2) ([1]; 10 uM): 25.65 pg/mL; IL-2 % Control (2) ([1]; 10 uM): 125.74%; IL-2 [ ]pg/ml (3) ([1]; 10 uM): 81.78 pg/mL; IL-2 % Control (3) ([1]; 10 uM): 59.13%; IL-2 [ ]pg/ml (1) ([1]; 30 uM): -2.80 pg/mL; IL-2 % Control (1) ([1]; 30 uM): −13.73%; IL-2 [ ]pg/ml (2) ([1]; 30 uM): -3.00 pg/mL; IL-2 % Control (2) ([1]; 30 uM): −14.71%; IL-2 [ ]pg/ml (3) ([1]; 30 uM): 76.25 pg/mL; IL-2 % Control (3) ([1]; 30 uM): 55.14%; IL-2 [ ]pg/ml (1) ([1]; 100 uM): -12.55 pg/mL; IL-2 % Control (1) ([1]; 100 uM): −61.52%; IL-2 [ ]pg/ml (2) ([1]; 100 uM): -12.80 pg/mL; IL-2 % Control (2) ([1]; 100 uM): −62.75%; IL-2 [ ]pg/ml (3) ([1]; 100 uM): 8.11 pg/mL; IL-2 % Control (3) ([1]; 100 uM): 5.87%; cell viability [2]: without affecting cell viability
O[C@H]1c2ccccc2C[C@]1(Cc1ccccc1)C1=Cc2ccccc2C1 (single isomer, unassigned) [Compound 9]	111.72	152.99	73.45	112.48	139.63	106.13	120.56	165.09	65.45	100.23	114.13	86.75	78.78	107.88	81.75	59.11	53.47	40.64	37.72	51.66	IL-2 [ ]pg/ml (2) ([1]; 10 uM): 85.60 pg/mL; IL-2 % Control (2) ([1]; 10 uM): 131.09%; IL-2 [ ]pg/ml (3) ([1]; 10 uM): 36.16 pg/mL; IL-2 % Control (3) ([1]; 10 uM): 27.48%; IL-2 [ ]pg/ml (1) ([1]; 30 uM): -4.56 pg/mL; IL-2 % Control (1) ([1]; 30 uM): −6.24%; IL-2 [ ]pg/ml (2) ([1]; 30 uM): 16.35 pg/mL; IL-2 % Control (2) ([1]; 30 uM): 25.04%; IL-2 [ ]pg/ml (3) ([1]; 30 uM): -3.88 pg/mL; IL-2 % Control (3) ([1]; 30 uM): −2.95%; IL-2 [ ]pg/ml (1) ([1]; 100 uM): -3.72 pg/mL; IL-2 % Control (1) ([1]; 100 uM): −5.10%; IL-2 [ ]pg/ml (2) ([1]; 100 uM): -5.75 pg/mL; IL-2 % Control (2) ([1]; 100 uM): −8.81%; IL-2 [ ]pg/ml (3) ([1]; 100 uM): -5.28 pg/mL; IL-2 % Control (3) ([1]; 100 uM): −4.01%; inhibition of DAI in DSS-induced colitis [3]: only the S,S-enantiomer 10 caused a significant; effect on DSS-induced weight loss [3]: not
O[C@@H]1c2ccccc2C[C@@]1(Cc1ccccc1)C1=Cc2ccccc2C1 (single isomer, unassigned) [Compound 10]	79.17	108.41	88.15	134.99	58.63	44.56	64.17	87.87	57.50	88.06	104.44	79.39	71.39	97.76	54.15	82.92	100.50	76.39	42.50	58.20	IL-2 [ ]pg/ml (2) ([1]; 10 uM): 45.60 pg/mL; IL-2 % Control (2) ([1]; 10 uM): 69.83%; IL-2 [ ]pg/ml (3) ([1]; 10 uM): 80.25 pg/mL; IL-2 % Control (3) ([1]; 10 uM): 61.00%; IL-2 [ ]pg/ml (1) ([1]; 30 uM): 14.17 pg/mL; IL-2 % Control (1) ([1]; 30 uM): 19.40%; IL-2 [ ]pg/ml (2) ([1]; 30 uM): 56.70 pg/mL; IL-2 % Control (2) ([1]; 30 uM): 86.83%; IL-2 [ ]pg/ml (3) ([1]; 30 uM): 46.06 pg/mL; IL-2 % Control (3) ([1]; 30 uM): 35.01%; IL-2 [ ]pg/ml (1) ([1]; 100 uM): -11.33 pg/mL; IL-2 % Control (1) ([1]; 100 uM): −15.52%; IL-2 [ ]pg/ml (2) ([1]; 100 uM): -6.30 pg/mL; IL-2 % Control (2) ([1]; 100 uM): −9.65%; IL-2 [ ]pg/ml (3) ([1]; 100 uM): -0.78 pg/mL; IL-2 % Control (3) ([1]; 100 uM): −0.59%; inhibition of DAI in DSS-induced colitis [3]: significant (P<0.0059) inhibition; effect on DSS-induced weight loss [3]: ameliorated; disease activity index (DAI) ([3]; day 7, mean±SEM, vehicle control 6.833±1.276): 2.333±0.211
